Experimental data taken from US20230059582A1, “CANNABINOID DERIVATIVES” (CANOPY GROWTH CORPORATION, priority 2019, published 2023).
Where two headings read alike, the source gives them in different places.

Experiments:
human CB1 receptor = target: T1, human CB1 receptor (Homo sapiens, UniProt P21554); test: CB1 radioligand competitive binding assay ([3H]CP 55,940 displacement); settings: for Selectivity CB1: fold difference between CB1 and CB2 binding, printed in the column of the receptor with higher affinity, 1.00 in both = about the same affinity
T1 construct: host or cells: CHO-K1 (stably transfected cell line, membranes prepared in house)

human CB2 receptor = target: T2, human CB2 receptor (Homo sapiens, UniProt P34972); test: CB2 radioligand competitive binding assay ([3H]CP 55,940 displacement); settings: for Selectivity CB2: fold difference between CB1 and CB2 binding, printed in the column of the receptor with higher affinity, 1.00 in both = about the same affinity
T2 construct: host or cells: CHO-K1 (stably transfected cell line, membranes prepared in house)
Procedure: Compounds of the present disclosure were tested for CB1 receptor binding affinity and for CB2 receptor binding affinity. As used herein, “binding affinity” is represented by the IC50 value, which was experimentally determined as described herein. The lower the IC50 value the higher the binding affinity. A compound of the present disclosure may be said to have “binding selectivity” if it has a higher binding affinity for one receptor compared to the other.
The membranes were prepared from CHO-K1 (Chinese hamster ovary) cells stably transfected with the human CB2 receptor (Cat. #ES-111-C; Perkin Elmer, Boston, Mass.). The cells were grown adherently and maintained in Ham's F12 medium containing 10% fetal bovine serum (FBS), penicillin, streptomycin and geneticin (G418) at 37° C. in a humid atmosphere of 5% CO2 following the manufacturer's instructions.
For membrane preparation the cells were washed with PBS and scraped off the plates in cold homogenization buffer (25 mM HEPES (pH 7.4), 2 mM EDTA) containing protease inhibitor cocktail (Sigma Cat. #P8340). The cell suspension was homogenized with a Pro-PK-01200D Polytron Homogenizer (Pro Scientific) and then centrifuged for 30 min at 120,000×g. The supernatant was discarded and the pellet was re-suspended in the homogenization buffer and stored at −80° C. until the time of use.
In this experiment, 3H radiolabeled CP 55,940, i.e. [3H]CP 55,940 (Perkin Elmer, Boston, Mass.), was used as a radioligand for the CB2 receptor to determine the binding affinity of compounds for the CB2 receptor (Scheme 3; above).
The competition binding experiments (single dose and dose-response) were performed by incubating 0.6 nM of [3H]CP55,940 (specific activity 101 Ci/mmol, Perkin Elmer) and different concentrations of compounds disclosed herein with membranes prepared as above from CHO-K1 cells expressing human CB2 receptor (1 μg of protein/well), 50 mM Tris-HCl (pH 7.4), 5 mM MgCl2, 1 mM CaCl2, and 2 mg/mL BSA.
For the single dose experiments, the compound stocks (usually 10 mM in DMSO) were diluted to working stocks in the binding buffer to give the final compound concentrations of 10 μM and 1 μM. For the dose-response experiments the test compounds were sequentially diluted to provide the desired concentration range for the IC50 determination. In each case the compounds were pre-incubated with the membrane for 20 min, before adding the radioligand.
After incubation with the radioligand for 60 min at 37° C., the incubation was terminated by rapid filtration of assay mixture through MultiScreen®HTS^+ 96-well filter plates (Millipore, Cat. #MSFCNXB), pre-soaked for 60 min with 50 mM Tris-HCl (pH 7.4) containing 0.33% polyethylenimine (PEI). The nonspecific binding (NSB) was determined in the presence of 10 μM unlabelled CP55,940. After drying the filter plate at 50° C. for at least 60 min, the filter-bound radioactivity was determined by scintillation spectrometry using the 1450 MicroBeta Plate Counter (Perkin Elmer, Boston, Mass.). From the dose-response experiments, the IC50 values were determined (see Table 1, CB2 IC50).
Where the test compound had about the same affinity for both receptors, this is represented by a value of 1.00 in the column for both receptors.

[1] = 0.8 nM [3H]CP 55,940, membranes from CHO-K1 cells expressing human CB1 receptor, dose-response, read-out: CB1 IC50
[2] = 0.6 nM [3H]CP 55,940, membranes from CHO-K1 cells expressing human CB2 receptor, dose-response, read-out: CB2 IC50

T2 sequence (P34972 whole entry): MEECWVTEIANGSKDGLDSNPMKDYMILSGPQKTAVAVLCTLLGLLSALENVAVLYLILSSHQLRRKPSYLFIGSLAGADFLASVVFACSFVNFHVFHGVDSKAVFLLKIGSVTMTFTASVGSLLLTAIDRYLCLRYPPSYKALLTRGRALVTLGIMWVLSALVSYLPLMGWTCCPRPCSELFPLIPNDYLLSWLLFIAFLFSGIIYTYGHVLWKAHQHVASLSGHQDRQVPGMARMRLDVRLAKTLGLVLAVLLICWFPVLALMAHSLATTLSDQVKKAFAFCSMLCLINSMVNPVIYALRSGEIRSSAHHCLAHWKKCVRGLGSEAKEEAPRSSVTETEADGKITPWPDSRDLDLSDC
T1 sequence (P21554 whole entry): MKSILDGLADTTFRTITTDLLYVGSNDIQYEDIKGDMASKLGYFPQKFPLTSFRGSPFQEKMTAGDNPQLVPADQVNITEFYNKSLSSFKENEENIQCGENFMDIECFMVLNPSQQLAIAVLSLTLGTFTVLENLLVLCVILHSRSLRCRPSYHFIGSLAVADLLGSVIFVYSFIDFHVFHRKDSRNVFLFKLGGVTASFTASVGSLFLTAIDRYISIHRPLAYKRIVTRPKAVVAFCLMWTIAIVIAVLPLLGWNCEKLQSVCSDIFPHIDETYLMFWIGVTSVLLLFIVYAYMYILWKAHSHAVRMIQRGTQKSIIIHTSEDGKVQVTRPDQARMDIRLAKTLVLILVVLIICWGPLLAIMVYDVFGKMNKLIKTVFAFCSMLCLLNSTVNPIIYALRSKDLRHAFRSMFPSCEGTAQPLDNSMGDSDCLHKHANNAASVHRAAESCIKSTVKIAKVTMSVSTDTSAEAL

Compound: CCCCCc1cc(O)c(CC=C(C)CCC=C(C)C)c(OCOC2CCCCC2)c1 [Compound 18, 3-((cyclohexyloxy)methoxy)-2-(3,7-dimethylocta-2,6-dien-1-yl)-5-pentylphenol]
- IC50 (human CB1 receptor; [1]): > 5000 nM
- IC50 (human CB2 receptor; [2]): < 500 nM
- Selectivity CB2 (human CB2 receptor): 28.00 fold

Compound: CCCCCCC(C)(C)c1cc(OCOC(=O)C(C)(C)C)c(CC=C(C)CCC=C(C)C)c(OCOC(=O)C(C)(C)C)c1 [22′, ((2-(3,7-dimethylocta-2,6-dien-1-yl)-5-(2-methyloctan-2-yl)-1,3-phenylene)bis(oxy))bis(methylene) bis(2,2-dimethylpropanoate)]
- IC50 (human CB1 receptor; [1]): > 5000 nM
- IC50 (human CB2 receptor; [2]): 1000 to 4990 nM
- Selectivity CB2 (human CB2 receptor): 7.14 fold

Compound: CCCCCc1cc(O)c(C/C=C(\C)CCC=C(C)C)c(OCN(C(=O)OC)c2ccccc2)c1 [Compound 23, methyl ((2-(3,7-dimethylocta-2,6-dien-1-yl)-3-hydroxy-5-pentylphenoxy)methyl)(phenyl)carbamate]
- IC50 (human CB1 receptor; [1]): < 500 nM
- IC50 (human CB2 receptor; [2]): < 500 nM
- Selectivity CB2 (human CB2 receptor): 1.37 fold

Compound: CCCCCc1cc(OCOC(=O)OCC)c(CC=C(C)CCC=C(C)C)c(OCOC(=O)OCC)c1 [4′, ((2-(3,7-dimethylocta-2,6-dien-1-yl)-5-pentyl-1,3-phenylene)bis(oxy))bis(methylene) diethyl bis(carbonate)]
- IC50 (human CB1 receptor; [1]): > 5000 nM
- IC50 (human CB2 receptor; [2]): 500 to 990 nM
- Selectivity CB2 (human CB2 receptor): 24.69 fold

Compound: CCCCCCC(C)(C)c1cc(O)c(CC=C(C)CCC=C(C)C)c(OCOC(=O)C(C)(C)C)c1 [Compound 22, (2-(3,7-dimethylocta-2,6-dien-1-yl)-3-hydroxy-5-(2-methyloctan-2-yl)phenoxy)methyl pivalate]
- IC50 (human CB1 receptor; [1]): 1000 to 4990 nM
- IC50 (human CB2 receptor; [2]): < 500 nM
- Selectivity CB2 (human CB2 receptor): 7.25 fold

Compound: CCCCCc1cc(O)c(CC=C(C)CCC=C(C)C)c(OCOC(=O)C(C)(C)C)c1 [Compound 7, (2-(3,7-dimethylocta-2,6-dien-1-yl)-3-hydroxy-5-pentylphenoxy)methyl pivalate]
- IC50 (human CB1 receptor; [1]): 500 to 990 nM
- IC50 (human CB2 receptor; [2]): < 500 nM
- Selectivity CB2 (human CB2 receptor): 16.02 fold

Compound: CCCCCc1cc(O)c(C/C=C(\C)CCC=C(C)C)c(OCOCC)c1 [Compound 16, 2-(3,7-dimethylocta-2,6-dien-1-yl)-3-(ethoxymethoxy)-5-pentylphenol]
- IC50 (human CB1 receptor; [1]): > 5000 nM
- IC50 (human CB2 receptor; [2]): 1000 to 4990 nM
- Selectivity CB2 (human CB2 receptor): 2.83 fold

Compound: CCCCCc1cc(OCOC2CCCCC2)c(CC=C(C)CCC=C(C)C)c(OCOC2CCCCC2)c1 [18′, ((((2-(3,7-dimethylocta-2,6-dien-1-yl)-5-pentyl-1,3-phenylene)bis(oxy))bis(methylene))bis(oxy))dicyclohexane]
- IC50 (human CB1 receptor; [1]): > 5000 nM
- Selectivity CB1 (human CB1 receptor): 1.00 fold
- IC50 (human CB2 receptor; [2]): > 5000 nM
- Selectivity CB2 (human CB2 receptor): 1.00 fold

Compound: CCCCCCC(C)(C)c1cc(O)c(C/C=C(\C)CCC=C(C)C)c(OCOC(=O)OCC)c1 [Compound 21, (2-(3,7-dimethylocta-2,6-dien-1-yl)-3-hydroxy-5-(2-methyloctan-2-yl)phenoxy)methyl ethyl carbonate]
- IC50 (human CB1 receptor): 500 to 990 nM
- IC50 (human CB2 receptor): < 500 nM
- Selectivity CB2 (human CB2 receptor): 6.92 fold

Compound: CCCc1cc(O)c(C/C=C(\C)CCC=C(C)C)c(OCOC(=O)OCC)c1 [Compound 20, (2-(3,7-dimethylocta-2,6-dien-1-yl)-3-hydroxy-5-propylphenoxy)methyl ethyl carbonate]
- IC50 (human CB1 receptor; [1]): 1000 to 4990 nM
- IC50 (human CB2 receptor; [2]): 1000 to 4990 nM
- Selectivity CB2 (human CB2 receptor): 1.80 fold

Compound: CCCCCc1cc(OCOC(=O)C(C)(C)C)c(CC=C(C)CCC=C(C)C)c(OCOC(=O)C(C)(C)C)c1 [7′, ((2-(3,7-dimethylocta-2,6-dien-1-yl)-5-pentyl-1,3-phenylene)bis(oxy))bis(methylene) bis(2,2-dimethylpropanoate)]
- IC50 (human CB1 receptor; [1]): > 5000 nM
- Selectivity CB1 (human CB1 receptor): 1.00 fold
- IC50 (human CB2 receptor; [2]): > 5000 nM
- Selectivity CB2 (human CB2 receptor): 1.00 fold

Compound: dimethyl (((5-butyl-2-(3,7-dimethylocta-2,6-dien-1-yl)-1,3-phenylene)bis(oxy))bis(methylene)) bis(phenylcarbamate) [23′]
- IC50 (human CB1 receptor; [1]): > 5000 nM
- IC50 (human CB2 receptor; [2]): > 5000 nM
- Selectivity CB2 (human CB2 receptor): 1.88 fold

Compound: CCCCCc1cc(O)c(CC=C(C)CCC=C(C)C)c(OCOC(=O)OCC)c1 [Compound 4, (2-(3,7-dimethylocta-2,6-dien-1-yl)-3-hydroxy-5-pentylphenoxy)methyl ethyl carbonate]
- IC50 (human CB1 receptor; [1]): 1000 to 4990 nM
- IC50 (human CB2 receptor; [2]): < 500 nM
- Selectivity CB2 (human CB2 receptor): 7.82 fold

Compound: CCCCCc1cc(O)c(C/C=C(\C)CCC=C(C)C)c(OCOCCOC)c1 [Compound 17, 2-(3,7-dimethylocta-2,6-dien-1-yl)-3-((2-methoxyethoxy)methoxy)-5-pentylphenol]
- IC50 (human CB1 receptor): 1000 to 4990 nM
- IC50 (human CB2 receptor): 1000 to 4990 nM
- Selectivity CB2 (human CB2 receptor): 4.00 fold

Compound: CCCc1cc(O)c(C/C=C(\C)CCC=C(C)C)c(OCOC(=O)C(C)(C)C)c1 [Compound 19, (2-(3,7-dimethylocta-2,6-dien-1-yl)-3-hydroxy-5-propylphenoxy)methyl pivalate]
- IC50 (human CB1 receptor; [1]): 500 to 990 nM
- IC50 (human CB2 receptor; [2]): < 500 nM
- Selectivity CB2 (human CB2 receptor): 3.89 fold
